One test relates to 3CL^pro mutant F140A. It counts as biochemical, SARS-CoV-2.
For test [1], the system named is SARS-CoV-2 Omicron variant B.1.1.529. To be noted: cited from earlier work.

pIC50: −log10 of the molar value.

Take simnotrelvir: in the test on 3CL^pro mutant F140A, the “IC50 fold change to WT” value is on record as 21.9 fold. The pIC50 in test [1] is 7.37.

(Values after publication PMC11963564 (Antimicrobial Agents and Chemotherapy, 2025).)
